Values joined by “and” are separate entries in the source; they are usually repeats but may differ in a detail not shown here. Equal values may be shown once. Read-outs that look alike come from different tables or passages of the source.
Legend:
[1] = system: rat IL-23 induced skin inflammation model; experiment: Rat IL-23 induced ear thickening; assay type: in vivo, Sprague-Dawley rats; parameters: key to IL-23 induced ear thickening, comparison to control (significance): ns: not significant; **: p < 0.01; ***: p < 0.001; ****: p < 0.0001; conditions: for IL-23 induced ear thickening, comparison to control (significance): control Vehicle
Method: Ear inflammation was induced in Sprague-Dawley rats by daily intradermal injection of recombinant rat IL-23 on study days 0-3. Treatment with the peptide of SEQ ID NO: 1 (dose response by oral gavage; 1, 3, 10, 30, 100, and 300 mg/kg, twice a day) was initiated prophylactically starting one day prior to and continued through day 3 after induction of inflammation. All rats were humanely euthanized on day 4. An anti-IL-23 monoclonal antibody (administered intraperitoneally on days −1 and day 3) was included in all studies as a positive control and comparator.
Recombinant rat IL-23 was diluted with PBS to a concentration of 75 μg/mL, divided into 2.0 mL aliquots, and stored at −80° C. Daily from day 0 through day 3, rats were anesthetized with isoflurane and IL-23 was intradermally injected (i.d.) into the right ear (1.5 μg in a volume of 20 μL). In the control group, 20 μL of PBS was injected.
Starting the morning prior to IL-23 injection through the evening of day 3, rats were dosed with either vehicle (phosphate buffer) or the peptide of SEQ ID NO: 1 compound twice daily (approximately 10 hours apart between doses during the day) by oral gavage (p.o.) in a volume of 5 mL/kg. In one experiment, the peptide of SEQ ID NO: 1 was also administered subcutaneously (s.c.) in a volume of 5 mL/kg.
Anti-IL-23p19 antibody or isotype antibody was administered via intraperitoneal injection (i.p.) in a volume of 5 mL/kg on days −1 and 3.
The purpose of the rat ear thickening experiment is to determine whether the orally dosed peptide of SEQ ID NO: 1 has sufficient systemic exposure to provide inhibition of IL-23R in skin tissue, thus modeling orally dosed therapeutic efficacy in psoriatic skin tissue. The animals from Example 19 were also used for Example 20. On day 0, prior to IL-23 injection, the ipsilateral ears averaged approximately 0.4 mm. In rats injected with saline, the ears did swell as a result of the repeated intradermal injections, by an average of 0.053 mm by day 4. By comparison, injection of IL-23 caused the ears of both vehicle-treated and isotype antibody-treated rats to progressively increase in thickness, reaching an average of approximately 0.240 to 0.242 mm by day 4, respectively. […] Reductions in ear thickness at doses of 2 mg/kg, s.c. and 20 mg/kg, p.o., q.d. were not statistically significant (FIG. 9 and Table 15).

[2] = system: IL-23 induced IFNγ production; experiment: Ex vivo whole blood IL-23-induced IFNγ production assay, FIH MAD cohorts; assay type: in vivo
Method: An ex vivo whole blood IL-23 induced IFNγ assay was used to evaluate the systemic pharmacodynamic activity of the orally administered peptide of SEQ ID NO: 1 in the first-in-human study. […] On Days 1 and 10, when the assay was performed, subjects received their dose of placebo or peptide of SEQ ID NO: 1 following an overnight fast of approximately 10 hours and remained fasted for approximately 4 hours following dosing. After oral dosing on days 1 and 10, whole blood from the subjects was stimulated ex vivo with either IL-2 (10 ng/mL) and IL-18 (20 ng/mL) or IL-2 (10 ng/mL), IL-18 (20 ng/mL), and IL-23 (0.5 ng/mL) in TruCulture™ tubes (Rules Based Medicine, Q^2 solutions company) for stimulation of IFNγ production. The production of IFNγ is expected to be suppressed if IL-23R signaling is inhibited. Therefore, lower IFNγ production in the assay is associated with sufficient exposure to achieve systemic pharmacodynamic (PD) activity of orally dosed peptide of SEQ ID NO: 1.
Whole blood was collected in TruCulture™ tubes according to manufacturer instructions, the tubes were incubated at 37° C. in a block thermostat for 24 hours (±1 hour). Following incubation at 37° C., supernatants were harvested according to TruCultube™ tube manufacturer instructions (Rules Based Medicine, Q^2 solutions company). An ELISA assay was used to quantify the levels of IFNg in the supernatants.

[3] = system: IL-23-induced IL-17A secretion; experiment: In vitro rat whole blood assay of IL-23-induced IL-17A secretion; assay type: cell-based
[4] = human, 25 mg, 100 mg, 300 mg and 1000 mg cohorts, oral once a day

Q: How did the “IL-23 induced ear thickening, comparison to control (significance)” value (“IL-23 induced ear thickening … (significance)” for short) ([1]; 1 mg/kg, p.o., b.i.d., Day 1) turn out when `CC(=O)NCCCC[C@@H]1NC(=O)[C@H](Cc2c[nH]c3c(C)cccc23)NC(=O)[C@H]([C@@H](C)O)NC(=O)[C@H](CC(N)=O)NC(=O)[C@@H](NC(C)=O)C(C)(C)SSC(C)(C)[C@@H](C(=O)N[C@@H](Cc2ccc(OCCN)cc2)C(=O)N[C@@H](Cc2ccc3ccccc3c2)C(=O)NC2(C(=O)N[C@@H](CCC(=O)O)C(=O)N[C@@H](CC(N)=O)C(=O)N[C@@H](Cc3cccnc3)C(=O)N(C)CC(N)=O)CCOCC2)NC1=O` [SEQ ID NO: 1, Ac-[Pen]*—N-T-[W(7-Me)]-[Lys(Ac)]-[Pen]*-Phe[4-(2-aminoethoxy)]-[2-Nal]-[THP]-E-N-[3-Pal]-Sarc-NH2] was run?
A: ns

Q: What about the “IL-23 induced ear thickening … (significance)” value ([1]; 1 mg/kg, p.o., b.i.d., Day 2) of the same compound?
A: ns

Q: And the “IL-23 induced ear thickening … (significance)” value ([1]; 1 mg/kg, p.o., b.i.d., Day 3)?
A: **** (p < 0.0001)

Q: And the “IL-23 induced ear thickening … (significance)” value ([1]; 1 mg/kg, p.o., b.i.d., Day 4)?
A: **** (p < 0.0001)

Q: What about the “IL-23 induced ear thickening … (significance)” value ([1]; 2 mg/kg, s.c., b.i.d., Day 1) of the same compound?
A: ns

Q: What about the “IL-23 induced ear thickening … (significance)” value ([1]; 2 mg/kg, s.c., b.i.d., Day 2) of the same compound?
A: ns

Q: What about the “IL-23 induced ear thickening … (significance)” value ([1]; 2 mg/kg, s.c., b.i.d., Day 3) of the same compound?
A: ns

Q: And the “IL-23 induced ear thickening … (significance)” value ([1]; 2 mg/kg, s.c., b.i.d., Day 4)?
A: ns

Q: What about the “IL-23 induced ear thickening … (significance)” value ([1]; 3 mg/kg, p.o., b.i.d., Day 1) of the same compound?
A: ns

Q: And the “IL-23 induced ear thickening … (significance)” value ([1]; 3 mg/kg, p.o., b.i.d., Day 2)?
A: ns

Q: And the “IL-23 induced ear thickening … (significance)” value ([1]; 3 mg/kg, p.o., b.i.d., Day 3)?
A: *** (p < 0.001)

Q: What about the “IL-23 induced ear thickening … (significance)” value ([1]; 3 mg/kg, p.o., b.i.d., Day 4) of the same compound?
A: *** (p < 0.001)

Q: What about the “IL-23 induced ear thickening … (significance)” value ([1]; 10 mg/kg, p.o., b.i.d., Day 1) of the same compound?
A: ns

Q: What about the “IL-23 induced ear thickening … (significance)” value ([1]; 10 mg/kg, p.o., b.i.d., Day 2) of the same compound?
A: ns

Q: And the “IL-23 induced ear thickening … (significance)” value ([1]; 10 mg/kg, p.o., b.i.d., Day 3)?
A: *** (p < 0.001)

Q: And the “IL-23 induced ear thickening … (significance)” value ([1]; 10 mg/kg, p.o., b.i.d., Day 4)?
A: **** (p < 0.0001)

Q: And the “IL-23 induced ear thickening … (significance)” value ([1]; 20 mg/kg, p.o., q.d., Day 1)?
A: ns

Q: And the “IL-23 induced ear thickening … (significance)” value ([1]; 20 mg/kg, p.o., q.d., Day 2)?
A: ns

Q: What about the “IL-23 induced ear thickening … (significance)” value ([1]; 20 mg/kg, p.o., q.d., Day 3) of the same compound?
A: ns

Q: What about the “IL-23 induced ear thickening … (significance)” value ([1]; 20 mg/kg, p.o., q.d., Day 4) of the same compound?
A: ns

Q: And the “IL-23 induced ear thickening … (significance)” value ([1]; 30 mg/kg, p.o., b.i.d., Day 1)?
A: ns

Q: And the “IL-23 induced ear thickening … (significance)” value ([1]; 30 mg/kg, p.o., b.i.d., Day 3)?
A: **** (p < 0.0001)

Q: And the “IL-23 induced ear thickening … (significance)” value ([1]; 30 mg/kg, p.o., b.i.d., Day 4)?
A: **** (p < 0.0001)

Q: What about the “IL-23 induced ear thickening … (significance)” value ([1]; 100 mg/kg, p.o., b.i.d., Day 1) of the same compound?
A: ns

Q: What about the “IL-23 induced ear thickening … (significance)” value ([1]; 100 mg/kg, p.o., b.i.d., Day 2) of the same compound?
A: ns

Q: And the “IL-23 induced ear thickening … (significance)” value ([1]; 100 mg/kg, p.o., b.i.d., Day 3)?
A: **** (p < 0.0001)

Q: And the “IL-23 induced ear thickening … (significance)” value ([1]; 100 mg/kg, p.o., b.i.d., Day 4)?
A: **** (p < 0.0001)

Q: And the “day 4 ear swelling, average” value ([1]; 300 mg/kg, b.i.d., oral)?
A: 0.120 mm

Q: What about the “IL-23 induced ear thickening … (significance)” value ([1]; 300 mg/kg, p.o., b.i.d., Day 1) of the same compound?
A: ns

Q: What about the “IL-23 induced ear thickening … (significance)” value ([1]; 300 mg/kg, p.o., b.i.d., Day 2) of the same compound?
A: ns

Q: And the “IL-23 induced ear thickening … (significance)” value ([1]; 300 mg/kg, p.o., b.i.d., Day 3)?
A: *** (p < 0.001)

Q: What about the “IL-23 induced ear thickening … (significance)” value ([1]; 300 mg/kg, p.o., b.i.d., Day 4) of the same compound?
A: **** (p < 0.0001)

Q: And the “efficacy on ear thickening” value ([1]; doses of 10 mg/kg (p.o., b.i.d.) and above)?
A: equaled or exceeded that of anti-IL-23 antibody treatment

Q: And the “IL-23 induced ear thickening” value ([1]; orally administered)?
A: prevented

Q: What about the “inhibition of IL-23 stimulated IFNγ production in human whole blood” value ([2]; 10-1000 mg oral once a day, Day 1 and Day 10) of the same compound?
A: dose dependent inhibition

Q: And the “maximum inhibition of IL-23 induced IFNγ production (mean systemic PD activity)” value [2, 4]?
A: ~100%

Q: What about the “time for which >50% inhibition of IFNγ production was maintained” value [2, 4] of the same compound?
A: ≥ 8 h

Q: And the IC50 ([3]; read-out: IC50 at 4 ng/mL IL-23 stimulation, individual vehicle-dosed rats, plus 4 ng/mL IL-1β, listed as peptide of SEQ ID NO: 1)?
A: 0.012 nM and 0.027 nM and 0.045 nM and 0.013 nM and 0.06 nM and 0.066 nM

Q: And the IC50 ([3]; read-out: IC50 at 4 ng/mL IL-23 stimulation, pooled blood (n = 6 naïve rats), plus 4 ng/mL IL-1β, listed as peptide of SEQ ID NO: 1)?
A: 0.1 nM and 0.11 nM

Q: What about the IC50 ([3]; read-out: IC50 at 20 ng/mL IL-23 stimulation, individual vehicle-dosed rats, listed as peptide of SEQ ID NO: 1) of the same compound?
A: 0.24 nM and 0.16 nM and 0.22 nM and 0.23 nM and 0.34 nM and 0.29 nM

Q: What about the IC50 ([3]; read-out: Mean IC50 at 4 ng/mL IL-23 stimulation, in vitro rat whole blood, mean of all experiments) of the same compound?
A: 0.054 ± 0.034 nM

Q: And the IC50 ([3]; read-out: Mean IC50 at 20 ng/mL IL-23 stimulation, in vitro rat whole blood, n=6 rats)?
A: 0.25 ± 0.062 nM

Reference: patent US11939361B2, “Compositions of peptide inhibitors of Interleukin-23 receptor” (Janssen Pharmaceutica NV, priority 2020, dated 2024)
